Marks after values point to notes of the source that are not given here.
Legend:
[1] = Thermal degradation of dye: absorbance at beginning and end of thermal cycling; assay type: physicochemical
Source text: The dyes SDA 8080 and 785 WS were mixed with a variety of surfactants such as PLURONIC F-127, TWEEN-20, TRITON X-100, NP-40, BRIJ-97 and cycled in a thermocycler (9700, Applied Biosystems). Absorbance readings were taken at the beginning and end of thermal cycling using HP Chem Station (HP 8453, Agilent Technologies, Palo Alto, Calif.) at 785 nm for the 785 WS dye and 1040 nm for the SDA 8080 dye. […] Thus, the surfactant helps to protect thermal degradation of the dye.

[2] = Laser stability / photobleaching of dye solution on repeated laser exposure; assay type: physicochemical; settings: for Laser Stability: 25 exposures
Experimental: An 813-nm diode laser source at 1.2W (1.9A) (Opto Power Corp., Tucson, Ariz. ) was used to heat a 10μL volume of near-IR dye at a concentration (0.1 mg/mL for 785 WS, 0.2 mg/iL for SDA 8080) to yield a 35° C. rise in temperature. The laser was manually turned on long enough for the temperature in a 10-μL well to increase by 35° C. (1-3 seconds) and was manually turned off when that level was attained. The temperature data was obtained using a thermocouple in the well, and the transmittance data was obtained via a power meter whose signals were digitized and graphically interpreted.
In another experiment, the 10 μL well was used to see if the dye/surfactant mixture could withstand laser cycling over a period of 30 cycles. The laser power was systematically varied from 60° C. to 94° C., 30 times.
Unlike in Example 8, some dyes and dye/surfactant complexes undergo photodegradation when exposed to laser beam. […] Specifically, in the case of 785 WS/BRIJ-97, the addition of ascorbic acid (typically 5 mg/mL) helped reduce the amount of photobleaching from 100% to 20% after 30 cycles. In some circumstances, rapid/controlled photodegradation may be desired. […] This would allow DNA tags (fluorescent or vis/IR) to be monitored at the end of the PCR reaction.
Vitamin E-TPGS has both surfactant as well as antioxidant properties.

[3] = molecular target: T1, AMPLITAQ DNA polymerase (Taq polymerase) (Thermus aquaticus, UniProt P19821); assay: PCR amplification of PERV protease fragment (327 bp) in presence of dye/surfactant; product on agarose gel or quantitated with Agilent 2100 Bioanalyzer; assay type: biochemical; settings: for effect of dye on PCR (Example 6): dye at typical concentrations of 0.1 or 0.2 mg/mL, without surfactant, agarose gel
T1 construct: purchased Applied Biosystems, Foster City, Calif
Experimental: Typically, a fresh stock solution of 5 milligrams (mg) of a water-insoluble near-infrared dye (NIR dye) was dissolved in 50 microliters (μL) of dimethylsulfoxide (DMSO) and brought up in water to a final volume of 1 milliliter (mL). This was then diluted out to various concentrations of dye. The diluted dye (typically 0.2 mg/mL) was then added to a surfactant solution (typically 4 wt-%) to form a complex. The complex was added to a PCR reaction.
PCR reactions were set up for a conserved sequence (327 bp) in the protease region of the genome of porcine endogenous retrovirus using a plasmid containing the PERV protease fragment, a forward primer and a reverse primer designed using a primer express program from Applied Biosystems, and AMPLITAQ DNA polymerase cocktail (commercially available from Applied Biosystems, Foster City, Calif.) and cycled in a thermocycler (9700, Applied Biosystems). The PCR reactions were typically carried out in 25-μL volumes. The NIR dye/surfactant mixture was added to the PCR cocktail to give the desired concentration of dye and surfactant in a total volume of 25 μL. A typical PCR cocktail contains 10x buffer, 2.5 μL; dNTPs, 2.0 μL (200 μM of each); forward primer, 0.5 μL (200 nM); reverse primer, 0.5 μL (200 nM); template DNA, 1.0 (1 ng/μL); Amplitaq, 0.25 μL (1.25 units); sterile water, 18.25 μL.
The products of PCR reactions were run on 1% agarose gel containing ethidium bromide and visualized using an ALPHA IMAGER (Alpha Innotech Corp., San Leandro, Calif.). […] However, a higher concentration of dye (0.1 mg/mL) for effective heating was needed. Thus, for all further PCR experiments, a dye concentration of 0.1 mg/mL or higher was used. […] Taq polymerase was tested from different manufacturers (Promega Corp., Madison, Wis.; Roche Biochemicals, Indianapolis, Ind.; Eppendorf, Scientific Inc., Westbury, N.Y.; Sigma, St. Louis, Mo.) and all the Taq polymerases were inhibited by 785 WS and SDA 8080.
In order to find out the optimum concentration of surfactant for PCR with NIR dye (785 WS and SDA 8080), the surfactant concentration in PCR reaction was varied from 0.1 wt-% to 4 wt-%. The PCR product formed was quantitated using DNA 7500 Labchip kit in Agilent 2100 Bioanalyzer (Agilent Inc, Paloalto, Calif.). The results shown in Table 3 indicate that increasing the concentration of surfactant relative to dye assists in the formation of PCR product.
A variety of dyes (NIR dyes such as IR782, IR768, SDA 2141, SDA8327, IR 830 WS, fluorescent dyes like oligreen and visible dyes like dichlorophenol, indophenol, saffranin, crystal violet, and commercially available food coloring) at typical concentrations of 0.1 or 0.2 mg/mL were allowed to interact with 4 wt-% PLURONIC F127 and each mixture was added to the PCR cocktail. The reaction was set up to amplify PERV protease fragment as described in Example 2 and the products of the reaction were analyzed by agarose gel electrophoresis.

[4] = 785 WS (0.1 mg/mL), surfactant 0.5 wt %, absorbance at 785 nm
[5] = 785 WS (0.1 mg/mL), surfactant 2 wt %, absorbance at 785 nm
[6] = 785 WS (0.1 mg/mL), surfactant 4 wt %, absorbance at 785 nm
[7] = SDA 8080 (0.2 mg/mL), surfactant 0.5 wt %, absorbance at 1040 nm
[8] = SDA 8080 (0.2 mg/mL), surfactant 2 wt %, absorbance at 1040 nm
[9] = SDA 8080 (0.2 mg/mL), surfactant 4 wt %, absorbance at 1040 nm
[10] = 785 WS (0.1 mg/mL), surfactant 0.1 wt %, absorbance at 785 nm
[11] = SDA 8080 (0.2 mg/mL), surfactant 0.1 wt %, absorbance at 1040 nm
[12] = 785 WS (0.1 mg/mL), surfactant 20 wt %, * can be made laser stable after addition of antioxidant
[13] = SDA 8080 (0.2 mg/mL), surfactant 20 wt %
[14] = 785 WS 0.1 mg/mL, surfactant 0.1 wt %
[15] = 785 WS 0.1 mg/mL, surfactant 0.5 wt %
[16] = 785 WS 0.1 mg/mL, surfactant 1 wt %
[17] = 785 WS 0.1 mg/mL, surfactant 2 wt %
[18] = 785 WS 0.1 mg/mL, surfactant 4 wt %
[19] = SDA 8080 0.2 mg/mL, surfactant 0.1 wt %
[20] = SDA 8080 0.2 mg/mL, surfactant 0.5 wt %
[21] = SDA 8080 0.2 mg/mL, surfactant 1 wt %
[22] = SDA 8080 0.2 mg/mL, surfactant 2 wt %
[23] = SDA 8080 0.2 mg/mL, surfactant 4 wt %
[24] = surfactant 4 wt %, 785 WS 0 mg/mL (no dye), data from a different experiment under identical PCR conditions
[25] = surfactant 4 wt %, SDA 8080 0 mg/mL (no dye), data from a different experiment under identical PCR conditions

T1 sequence (P19821 whole entry, the tested form may be a part): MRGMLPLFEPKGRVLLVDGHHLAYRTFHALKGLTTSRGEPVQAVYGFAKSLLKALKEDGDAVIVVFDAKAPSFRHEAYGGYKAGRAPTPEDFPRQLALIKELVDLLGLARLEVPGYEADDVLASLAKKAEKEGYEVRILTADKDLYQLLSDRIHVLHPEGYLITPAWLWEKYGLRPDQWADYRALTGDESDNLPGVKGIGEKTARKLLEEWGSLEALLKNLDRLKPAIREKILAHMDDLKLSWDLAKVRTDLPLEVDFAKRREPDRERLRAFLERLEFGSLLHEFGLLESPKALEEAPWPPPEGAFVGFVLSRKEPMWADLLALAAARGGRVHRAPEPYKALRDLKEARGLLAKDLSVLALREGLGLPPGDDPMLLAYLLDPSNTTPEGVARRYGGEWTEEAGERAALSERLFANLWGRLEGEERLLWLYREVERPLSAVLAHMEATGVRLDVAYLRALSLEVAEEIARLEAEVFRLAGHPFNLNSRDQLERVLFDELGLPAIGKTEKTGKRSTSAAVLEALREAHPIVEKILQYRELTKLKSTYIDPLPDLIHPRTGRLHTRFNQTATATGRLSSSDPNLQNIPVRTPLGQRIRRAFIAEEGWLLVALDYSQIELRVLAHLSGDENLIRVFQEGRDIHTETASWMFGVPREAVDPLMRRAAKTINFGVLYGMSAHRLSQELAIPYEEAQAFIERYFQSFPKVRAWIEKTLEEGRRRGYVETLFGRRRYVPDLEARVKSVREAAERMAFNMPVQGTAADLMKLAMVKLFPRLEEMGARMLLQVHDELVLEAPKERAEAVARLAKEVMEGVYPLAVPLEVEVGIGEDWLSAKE

d-Alpha tocopheryl polyethylene glycol 1000 [Vitamin E TPGS]
Thermal Degradation [1, 4]: 6.5%
Thermal Degradation [1, 5]: 4.0%
Thermal Degradation [1, 6]: 5.3%
Thermal Degradation [1, 7]: 89.5%
Thermal Degradation [1, 8]: 88.9%
Thermal Degradation [1, 9]: 92.3%
Laser Stability ([2]; 785 WS (0.1 mg/mL), surfactant 4 wt %, * can be made laser stable after addition of antioxidant): + (less than a 20% degradation in dye absorbance over a period of 25 exposures)
light stability ([2]; Vitamin E-TPGS 4 wt-% added to 785 WS 0.1 mg/mL, after 30 cycles of laser exposure): significantly increased

Cc1cc2nc3cc(C)c(N)cc3[n+](-c3ccccc3)c2cc1N.[Cl-] [saffranin]
effect of dye on PCR (Example 6) [3]: inhibited PCR

Octyl phenoxy polyethoxyethanol [TRITON X-100]
Thermal Degradation [1, 10]: 24.8%
Thermal Degradation [1, 6]: 4.6%
Thermal Degradation [1, 11]: 76.0%
Thermal Degradation [1, 9]: 0.0%
Thermal Degradation ([1]; SDA 8080 (0.2 mg/mL), surfactant 20 wt %, absorbance at 1040 nm): 7.1%
Laser Stability [2, 12]: −* (greater than 20% degradation in dye absorbance over a period of 25 exposures)
Laser Stability [2, 13]: + (less than a 20% degradation in dye absorbance over a period of 25 exposures)
PCR Product [3, 14]: 0 ng/µL
PCR Product [3, 15]: 0.1 ng/µL
PCR Product [3, 16]: 0.4 ng/µL
PCR Product [3, 17]: 2.2 ng/µL
PCR Product [3, 18]: 1.3 ng/µL
PCR Product [3, 19]: 0 ng/µL
PCR Product [3, 20]: 2.3 ng/µL
PCR Product [3, 21]: 1.4 ng/µL
PCR Product [3, 22]: 1.9 ng/µL
PCR Product [3, 23]: 1.1 ng/µL
PCR Product [3, 24]: 23.8* ng/μL
PCR Product [3, 25]: 23.8* ng/μL

O=C1O[C@H]([C@@H](O)CO)C(O)=C1O [ascorbic acid]
effect of antioxidant on photobleaching of 785 WS ([2]; added to virtually any of the surfactants tested with 785 WS): reduced photobleaching significantly

Polyoxyethylene (10) oleyl ether [BRIJ 97]
Thermal Degradation ([1]; 785 WS (0.1 mg/mL), surfactant 0.01 wt %, absorbance at 785 nm): 79.0%
Thermal Degradation [1, 4]: 95.0%
Thermal Degradation ([1]; 785 WS (0.1 mg/mL), surfactant 1 wt %, absorbance at 785 nm): 94.5%
Thermal Degradation [1, 5]: 94.5%
Thermal Degradation [1, 6]: 96.0%
Thermal Degradation ([1]; SDA 8080 (0.2 mg/mL), surfactant 0.01 wt %, absorbance at 1040 nm): 86.2%
Thermal Degradation [1, 7]: 67.7%
Thermal Degradation ([1]; SDA 8080 (0.2 mg/mL), surfactant 1 wt %, absorbance at 1040 nm): 50.0%
Thermal Degradation [1, 8]: 29.4%
Thermal Degradation [1, 9]: 6.0%
Laser Stability [2, 12]: −* (greater than 20% degradation in dye absorbance over a period of 25 exposures)
Laser Stability [2, 13]: + (less than a 20% degradation in dye absorbance over a period of 25 exposures)
PCR Product [3, 14]: 0 ng/µL
PCR Product [3, 15]: 0 ng/µL
PCR Product [3, 16]: 0 ng/µL
PCR Product [3, 17]: 13.8 ng/µL
PCR Product [3, 18]: 21.9 ng/µL
PCR Product [3, 19]: 18.7 ng/µL
PCR Product [3, 20]: 19.3 ng/µL
PCR Product [3, 21]: 23.5 ng/µL
PCR Product [3, 22]: 25.5 ng/µL
PCR Product [3, 23]: 22.6 ng/µL

CN(C)c1ccc(C(=C2C=CC(=[N+](C)C)C=C2)c2ccc(N(C)C)cc2)cc1 [crystal violet]
effect of dye on PCR (Example 6) [3]: inhibited PCR

Nonyl phenoxy poly (ethyleneoxy) ethanol [NP-40]
Thermal Degradation [1, 10]: 20.2%
Thermal Degradation [1, 6]: 27.4%
Thermal Degradation [1, 11]: 82.1%
Thermal Degradation [1, 9]: 48.8%
PCR Product [3, 14]: 0 ng/µL
PCR Product [3, 15]: 0 ng/µL
PCR Product [3, 16]: 0 ng/µL
PCR Product [3, 17]: 0.3 ng/µL
PCR Product [3, 18]: 3.8 ng/µL
PCR Product ([3]; SDA 8080 0.1 mg/mL, surfactant 0.1 wt %): 0 ng/µL
PCR Product [3, 20]: 23.3 ng/µL
PCR Product [3, 21]: 23.7 ng/µL
PCR Product [3, 22]: 17.2 ng/µL
PCR Product [3, 23]: 18 ng/µL
PCR Product [3, 24]: 24.2* ng/μL
PCR Product [3, 25]: 24.2* ng/μL

dichlorophenol
effect of dye on PCR (Example 6) [3]: inhibited PCR

— patent US20030017567A1, “Biological sample processing methods and compositions that include surfactants” (3M Innovative Properties Company, priority 2001, published 2003)
